The source of these data is patent US6495550B2, “Pyridine-substituted benzanilides as potassium ion channel openers” (ICAgen, Inc., priority 1999, dated 2002).

Structures are written as SMILES.

For the compound `Nc1ccc(C(=O)Nc2ccc(Cl)nc2)cc1F` [Compound 41, 4-Amino-N-(6-chloro-pyridin-3-yl)-3-fluoro-benzamide], the melting point was 193 °C.

Regarding `O=C(Nc1ccc(Cl)nc1)c1cc2ccccc2[nH]1` [Compound 26, 1H-Indole-2-carboxylic acid (6-chloro-pyridin-3-yl)-amide], the melting point was 260 to 263 °C.

`O=C(Nc1ccc(Cl)nc1)c1ccc([N+](=O)[O-])c(F)c1` [Compound 37, N-(6-Chloro-pyridin-3-yl)-3-fluoro-4-nitro-benzamide]: the melting point worked out at 205 °C.

Turning to `O=C(Nc1ccc(Cl)nc1)c1ccc(NCc2ccccn2)c(F)c1` [Compound 33, N-(6-Chloro-pyridin-3-yl)-3-fluoro-4-[(pyridin-2-ylmethyl)-amino]-benzamide], the melting point lay within 210 to 211 °C.

The compound `O=C(Nc1ccc(Cl)nc1)c1ccc(C(F)(F)F)c(F)c1` [Compound 12, N-(6-Chloro-pyridin-3-yl)-3-fluoro-4-trifluoromethyl-benzamide] had a melting point of 182 °C.

Turning to `CCc1ccc2[nH]c(C(=O)Nc3ccc(Cl)nc3)cc2c1` [Compound 24, 5-Ethyl-1 H-indole-2-carboxylic acid (6-chloro-pyridin-3-yl)-amide], the melting point was determined as 270 °C.

`O=C(Nc1ccc(F)nc1)c1cnc(F)c(F)c1` [Compound 15, 5,6-Difluoro-N-(6-fluoro-pyridin-3-yl)-nicotinamide] came in with a melting point of 135 to 137 °C.

In the case of `O=C(Nc1ccc(Cl)nc1)c1ccc(Cl)cc1` [Compound 14, N-(6-Chloro-pyridin-3-yl)-4-chloro-benzamide], the melting point was in the range of 197 to 199 °C.

The compound `O=C(Nc1ccc(Cl)nc1)c1cc2cc(F)ccc2[nH]1` [Compound 17, 5-Fluoro-1 H-indole-2-carboxylic acid (6-chloro-pyridin-3-yl)-amide] registered a melting point of 290 °C.

`O=C(Nc1ccc(Cl)nc1)c1cccc(C(F)(F)F)c1` [Compound 10, N-(6-Chloro-pyridin-3-yl)-3-(trifluoromethyl)-benzamide] gave a melting point of 169 to 170 °C.

The compound `O=C(Nc1ccc(Cl)nc1)c1ccc(Cl)o1` [Compound 21, 5-Chloro-furan-2-carboxylic acid (6-chloro-pyridin-3-yl)-amide] gave a melting point of 143 to 144 °C.

Compound `O=C(Nc1ccc(Cl)nc1)c1ccc([N+](=O)[O-])cc1` [Compound 42, N-(6-Chloro-pyridin-3-yl)-4-nitro-benzamide] registered a melting point of 193 °C.

The compound `O=C(Nc1ccc(Cl)nc1)c1ccc(N2CCOCC2)c(F)c1` [Compound 31, N-(6-Chloro-pyridin-3-yl)-3-fluoro-4-morpholin-4-yl-benzamide] yielded a melting point of 228 to 229 °C.

As to `O=C(Nc1ccc(Cl)nc1)c1ccc(NC(=O)c2ccccn2)cc1` [Compound 35, Pyridine-2-carboxylic acid [4-(6-chloro-pyridin-3-ylcarbamoyl)-phenyl]-amide], the melting point was in the range of 258 to 260 °C.

Take `O=C(Nc1ccc(Cl)nc1)c1ccc(Cl)nc1` [Compound 7, 6-Chloro-N-(6-chloro-pyridin-3-yl)-nicotinamide]: the melting point is 228 °C.

`O=C(Nc1ccc(Cl)nc1)c1cccc(F)c1` [Compound 9, N-(6-Chloro-pyridin-3-yl)-3-fluoro-benzamide] returned a melting point of 160 °C.

On to `O=C(Nc1ccc(Cl)nc1)c1cc2cc(Cl)ccc2o1` [Compound 19, 5-Chloro-benzofuran-2-carboxylic acid (6-chloro-pyridin-3-yl)-amide], for which the melting point lay in the range of 222 to 223 °C.

As for `CN(C)c1ccc(C(=O)Nc2ccc(Cl)nc2)cc1F` [Compound 34, N-(6-Chloro-pyridin-3-yl)-4-dimethylamino-3-fluoro-benzamide], the melting point fell in the range of 170 to 171 °C.

Turning to `O=C(Nc1ccc(Cl)nc1)c1ccccc1` [Compound 25, N-(6-Chloro-pyridin-3-yl)-benzamide], the melting point lay within 163 to 164 °C.

`O=C(Nc1ccc(Cl)nc1)c1cccc(C(F)(F)F)c1` [Compound 3, N-(6-Chloro-pyridin-3-yl)-3-trifluoromethyl-benzamide] registered a melting point of 139 to 140 °C.

Compound `O=C(Nc1ccc(Cl)nc1)c1cc2cc(Cl)ccc2[nH]1` [Compound 18, 5-Chloro-1 H-indole-2-carboxylic acid (6-chloro-pyridin-3-yl)-amide] gave a melting point of 296 °C.

`O=C(Nc1ccc(Cl)nc1)c1ccc(Cl)c(Cl)c1` [Compound 2, 3,4-Dichloro-N-(6-chloro-pyridin-3-yl)-benzamide] returned a melting point of 188 to 189 °C.

In the case of `Cc1cc(C(=O)Nc2ccc(Cl)nc2)ccc1[N+](=O)[O-]` [Compound 16, N-(6-Chloro-pyridin-3-yl)-3-methyl-4-nitro-benzamide], the melting point was in the range of 192 to 193 °C.

With `O=C(Nc1ccc(Cl)nc1)c1cccc(Cl)c1` [Compound 5, 3-Chloro-N-(6-chloro-pyridin-3-yl)-benzamide], the melting point fell in the range of 153 to 154 °C.

Turning to `O=C(Nc1ccc(Cl)nc1)c1ccc(-c2ccccc2)cc1` [Compound 6, Biphenyl-4-carboxylic acid (6-chloro-pyridin-3-yl)-amide], the melting point lay within 227 to 229 °C.

`O=C(Nc1ccc(Cl)nc1)c1ccc(Cl)s1` [Compound 20, 5-Chloro-thiophene-2-carboxylic acid (6-chloro-pyridin-3-yl)-amide] registered a melting point of 215 to 216 °C.

For the compound `Cc1c(C(=O)Nc2ccc(Cl)nc2)[nH]c2ccccc12` [Compound 23, 3-Methyl-1 H-indole-2-carboxylic acid (6-chloro-pyridin-3-yl)-amide], the melting point is 184 to 185 °C.
